Numbers after ± are expanded uncertainties. Blank lines part the entries; values can stand above or below the compound they belong to.
Experiments:
[1] = refractive index (Na D-line) (dimensionless); conditions: 298.15 K; 101.33 kPa; Liquid
[2] = 298.15 K; 101 kPa; Liquid
[3] = refractive index (Na D-line) (dimensionless); xn = mol fraction of the nth substance listed; conditions: 298.15 K, 101 kPa, Liquid
[4] = xn = mol fraction of the nth substance listed; conditions: 298.15 K, 101 kPa, Liquid

Structure (SMILES): CCCCn1cc[n+](C)c1.F[B-](F)(F)F [1-butyl-3-methylimidazolium tetrafluoroborate]
refractive index [1]: 1.41831 ± 0.00066
mass density [2]: 1192.78 ± 0.71 kg/m3

Structure (SMILES): CCCCn1cc[n+](C)c1.F[B-](F)(F)F [1-butyl-3-methylimidazolium tetrafluoroborate] + CO
refractive index ([3]; x2 = 0): 1.41831 ± 0.00066
refractive index ([3]; x2 = 0.0517): 1.41844 ± 0.00066
refractive index ([3]; x2 = 0.104): 1.41726 ± 0.00066
refractive index ([3]; x2 = 0.1995): 1.41454 ± 0.00066
refractive index ([3]; x2 = 0.2975): 1.41296 ± 0.00065
refractive index ([3]; x2 = 0.3993): 1.41485 ± 0.00065
refractive index ([3]; x2 = 0.5002): 1.41652 ± 0.00065
refractive index ([3]; x2 = 0.599): 1.41435 ± 0.00065
refractive index ([3]; x2 = 0.6994): 1.40537 ± 0.00065
refractive index ([3]; x2 = 0.7997): 1.39145 ± 0.00064
refractive index ([3]; x2 = 0.9): 1.37496 ± 0.00064
refractive index ([3]; x2 = 0.9501): 1.36221 ± 0.00064
mass density ([4]; x2 = 0): 1192.78 ± 0.71 kg/m3
mass density ([4]; x2 = 0.0517): 1188.58 ± 0.68 kg/m3
mass density ([4]; x2 = 0.104): 1183.87 ± 0.66 kg/m3
mass density ([4]; x2 = 0.1995): 1174.09 ± 0.62 kg/m3
mass density ([4]; x2 = 0.2975): 1162.14 ± 0.57 kg/m3
mass density ([4]; x2 = 0.3993): 1146.82 ± 0.52 kg/m3
mass density ([4]; x2 = 0.5002): 1127.34 ± 0.48 kg/m3
mass density ([4]; x2 = 0.599): 1102.37 ± 0.42 kg/m3
mass density ([4]; x2 = 0.6994): 1067.86 ± 0.35 kg/m3
mass density ([4]; x2 = 0.7997): 1016.59 ± 0.26 kg/m3
mass density ([4]; x2 = 0.9): 934.6 ± 0.29 kg/m3
mass density ([4]; x2 = 0.9501): 872.82 ± 0.37 kg/m3

Structure (SMILES): CCCCn1cc[n+](C)c1.F[B-](F)(F)F [1-butyl-3-methylimidazolium tetrafluoroborate] + COC(=O)OC
refractive index ([3]; x2 = 0): 1.41831 ± 0.00066
refractive index ([3]; x2 = 0.051): 1.4176 ± 0.00066
refractive index ([3]; x2 = 0.1014): 1.41675 ± 0.00066
refractive index ([3]; x2 = 0.1987): 1.41501 ± 0.00066
refractive index ([3]; x2 = 0.2999): 1.41282 ± 0.00065
refractive index ([3]; x2 = 0.4012): 1.41049 ± 0.00065
refractive index ([3]; x2 = 0.5): 1.40796 ± 0.00065
refractive index ([3]; x2 = 0.6005): 1.40459 ± 0.00065
refractive index ([3]; x2 = 0.7007): 1.39931 ± 0.00064
refractive index ([3]; x2 = 0.8003): 1.39196 ± 0.00064
refractive index ([3]; x2 = 0.9): 1.38162 ± 0.00064
mass density ([4]; x2 = 0): 1192.78 ± 0.71 kg/m3
mass density ([4]; x2 = 0.051): 1191.17 ± 0.69 kg/m3
mass density ([4]; x2 = 0.1014): 1189.24 ± 0.67 kg/m3
mass density ([4]; x2 = 0.1987): 1184.98 ± 0.64 kg/m3
mass density ([4]; x2 = 0.2999): 1179.76 ± 0.6 kg/m3
mass density ([4]; x2 = 0.4012): 1173.39 ± 0.57 kg/m3
mass density ([4]; x2 = 0.5): 1165.72 ± 0.54 kg/m3
mass density ([4]; x2 = 0.6005): 1155.89 ± 0.5 kg/m3
mass density ([4]; x2 = 0.7007): 1143.06 ± 0.46 kg/m3
mass density ([4]; x2 = 0.8003): 1125.52 ± 0.41 kg/m3
mass density ([4]; x2 = 0.9): 1100.22 ± 0.35 kg/m3

Structure (SMILES): CO [methanol]
refractive index [1]: 1.32668 ± 0.00064
mass density [2]: 786.72 ± 0.49 kg/m3

Structure (SMILES): CO [methanol] + CCCCn1cc[n+](C)c1.F[B-](F)(F)F
refractive index ([3]; x1 = 1): 1.32668 ± 0.00064
mass density ([4]; x1 = 1): 786.72 ± 0.49 kg/m3

Structure (SMILES): CO [methanol] + CCOS(=O)(=O)[O-].CCn1cc[n+](C)c1
refractive index ([3]; x1 = 1): 1.32668 ± 0.00064
mass density ([4]; x1 = 1): 786.72 ± 0.49 kg/m3

Structure (SMILES): CO [methanol] + COC(=O)OC
refractive index ([3]; x2 = 0): 1.32668 ± 0.00064
mass density ([4]; x2 = 0): 786.72 ± 0.49 kg/m3

The remaining lines, values ahead:

refractive index [1]: 1.47908 ± 0.00066
mass density [2]: 1236.33 ± 0.8 kg/m3
Structure (SMILES): CCOS(=O)(=O)[O-].CCn1cc[n+](C)c1 [1-ethyl-3-methylimidazolium ethyl sulfate]

refractive index ([3]; x2 = 0): 1.47908 ± 0.00066
refractive index ([3]; x2 = 0.0487): 1.47873 ± 0.00066
refractive index ([3]; x2 = 0.0977): 1.47637 ± 0.00066
refractive index ([3]; x2 = 0.1978): 1.47035 ± 0.00066
refractive index ([3]; x2 = 0.2989): 1.46618 ± 0.00065
refractive index ([3]; x2 = 0.3991): 1.46462 ± 0.00065
refractive index ([3]; x2 = 0.4991): 1.46284 ± 0.00065
refractive index ([3]; x2 = 0.5993): 1.45585 ± 0.00065
refractive index ([3]; x2 = 0.7002): 1.43992 ± 0.00065
refractive index ([3]; x2 = 0.7999): 1.41722 ± 0.00064
refractive index ([3]; x2 = 0.9002): 1.39225 ± 0.00064
refractive index ([3]; x2 = 0.9502): 1.37316 ± 0.00064
mass density ([4]; x2 = 0): 1236.33 ± 0.8 kg/m3
mass density ([4]; x2 = 0.0487): 1232.01 ± 0.77 kg/m3
mass density ([4]; x2 = 0.0977): 1227.32 ± 0.75 kg/m3
mass density ([4]; x2 = 0.1978): 1216.77 ± 0.7 kg/m3
mass density ([4]; x2 = 0.2989): 1203.48 ± 0.65 kg/m3
mass density ([4]; x2 = 0.3991): 1186.7 ± 0.6 kg/m3
mass density ([4]; x2 = 0.4991): 1165.38 ± 0.55 kg/m3
mass density ([4]; x2 = 0.5993): 1137.34 ± 0.48 kg/m3
mass density ([4]; x2 = 0.7002): 1098.94 ± 0.4 kg/m3
mass density ([4]; x2 = 0.7999): 1043.62 ± 0.31 kg/m3
mass density ([4]; x2 = 0.9002): 953.54 ± 0.27 kg/m3
mass density ([4]; x2 = 0.9502): 884.35 ± 0.36 kg/m3
Structure (SMILES): CCOS(=O)(=O)[O-].CCn1cc[n+](C)c1 [1-ethyl-3-methylimidazolium ethyl sulfate] + CO

refractive index ([3]; x2 = 0): 1.47908 ± 0.00066
refractive index ([3]; x2 = 0.0502): 1.47687 ± 0.00066
refractive index ([3]; x2 = 0.0999): 1.47443 ± 0.00066
refractive index ([3]; x2 = 0.1987): 1.46971 ± 0.00066
refractive index ([3]; x2 = 0.2999): 1.46385 ± 0.00065
refractive index ([3]; x2 = 0.3994): 1.45729 ± 0.00065
refractive index ([3]; x2 = 0.5006): 1.44906 ± 0.00065
refractive index ([3]; x2 = 0.5999): 1.43953 ± 0.00065
refractive index ([3]; x2 = 0.7001): 1.42848 ± 0.00065
mass density ([4]; x2 = 0): 1236.33 ± 0.8 kg/m3
mass density ([4]; x2 = 0.0502): 1233.17 ± 0.77 kg/m3
mass density ([4]; x2 = 0.0999): 1229.81 ± 0.75 kg/m3
mass density ([4]; x2 = 0.1987): 1223.27 ± 0.71 kg/m3
mass density ([4]; x2 = 0.2999): 1215.47 ± 0.67 kg/m3
mass density ([4]; x2 = 0.3994): 1206.15 ± 0.63 kg/m3
mass density ([4]; x2 = 0.5006): 1194.57 ± 0.59 kg/m3
mass density ([4]; x2 = 0.5999): 1180.67 ± 0.55 kg/m3
mass density ([4]; x2 = 0.7001): 1163.11 ± 0.5 kg/m3
Structure (SMILES): CCOS(=O)(=O)[O-].CCn1cc[n+](C)c1 [1-ethyl-3-methylimidazolium ethyl sulfate] + COC(=O)OC

refractive index [1]: 1.36647 ± 0.00064
mass density [2]: 1063.28 ± 0.28 kg/m3
Structure (SMILES): COC(=O)OC [dimethyl carbonate]

refractive index ([3]; x1 = 1): 1.36647 ± 0.00064
mass density ([4]; x1 = 1): 1063.28 ± 0.28 kg/m3
Structure (SMILES): COC(=O)OC [dimethyl carbonate] + CCCCn1cc[n+](C)c1.F[B-](F)(F)F

refractive index ([3]; x1 = 1): 1.36647 ± 0.00064
mass density ([4]; x1 = 1): 1063.28 ± 0.28 kg/m3
Structure (SMILES): COC(=O)OC [dimethyl carbonate] + CCOS(=O)(=O)[O-].CCn1cc[n+](C)c1

refractive index ([3]; x1 = 0.0501): 1.33071 ± 0.00064
refractive index ([3]; x1 = 0.0997): 1.33427 ± 0.00064
refractive index ([3]; x1 = 0.2008): 1.34139 ± 0.00064
refractive index ([3]; x1 = 0.3003): 1.347 ± 0.00064
refractive index ([3]; x1 = 0.4002): 1.35162 ± 0.00064
refractive index ([3]; x1 = 0.5005): 1.35583 ± 0.00064
refractive index ([3]; x1 = 0.6004): 1.35891 ± 0.00064
refractive index ([3]; x1 = 0.7015): 1.36093 ± 0.00064
refractive index ([3]; x1 = 0.8012): 1.36336 ± 0.00064
refractive index ([3]; x1 = 0.8999): 1.36501 ± 0.00064
refractive index ([3]; x1 = 0.9483): 1.36566 ± 0.00064
refractive index ([3]; x1 = 1): 1.36647 ± 0.00064
mass density ([4]; x1 = 0.0501): 814.35 ± 0.45 kg/m3
mass density ([4]; x1 = 0.0997): 838.96 ± 0.41 kg/m3
mass density ([4]; x1 = 0.2008): 882.51 ± 0.36 kg/m3
mass density ([4]; x1 = 0.3003): 918.19 ± 0.31 kg/m3
mass density ([4]; x1 = 0.4002): 948.52 ± 0.27 kg/m3
mass density ([4]; x1 = 0.5005): 974.63 ± 0.24 kg/m3
mass density ([4]; x1 = 0.6004): 997.16 ± 0.2 kg/m3
mass density ([4]; x1 = 0.7015): 1017.04 ± 0.21 kg/m3
mass density ([4]; x1 = 0.8012): 1034.29 ± 0.23 kg/m3
mass density ([4]; x1 = 0.8999): 1049.44 ± 0.26 kg/m3
mass density ([4]; x1 = 0.9483): 1056.31 ± 0.27 kg/m3
mass density ([4]; x1 = 1): 1063.28 ± 0.28 kg/m3
Structure (SMILES): COC(=O)OC [dimethyl carbonate] + CO
